Assay [1] deals with liver damage induced by carbon tetrachloride. Description: Protective (Controlling) effect on liver damage induced by carbon tetrachloride. Format: in vivo, mice (dd strain). Particulars: 250 mg/kg p.o., CCl4 0.05 ml/kg after 6 h, 24 h; for p-GPT: CCl4 alone >2,100; for Liver Damage Index: average of 5 mice, 0 Normal, 2 Slightly recognized, 4 Clearly observable damage, 6 Heavy damage, CCl4 alone 5.0. The source says: Protective (Controlling) Effect on liver damage induced by carbon tetrachloride.
Carbon tetrachloride administration induces centrilobular necrosis of the liver associated with loss of diphosphopyridine nucleotide, hepatic glycogen, coenzyme A and increase in neutral fat. Release of several enzymes from the hepatocytes, and increases of enzyme activities in the plasma are recognized as the result of the damage of the liver.
A suitable means for evaluating the degree induced by carbon tetrachloride or the degree of protection afforded by drugs is to study the plasma glutamic-pyruvic transaminase (p-GPT) activity. […]
After 6 hours, carbon tetrachloride was administered orally 0.05 ml/kg.
Animals were killed 24 hours after carbon tetrachloride administration, and the liver was grossly observed.
The plasma was obtained by centrifugation. Activity of p-GPT were determined by the method of Reitman and Frankel and expressed in Karmen units.
Score for liver damage index was as follows:
1 Each figure indicated average of 5 mice.

The subject of assay [2] is liver damage induced by α-naphthyl isothiocyanate (ANIT). The assay is described as follows: Protective effect on liver damage induced by ANIT (Method 2). Format: in vivo, mice (dd strain). The note with it: 250 mg/kg p.o., ANIT 35 mg/kg p.o. after 6 h, 24 h. How it is done:
(§1) Protective effect on liver damage induced by α-naphthyl isothiocyanate (referred to as "ANIT", hereinafter).
Test compounds, dissolved or suspended in olive oil or diethyleneglycol, were orally administered at the dose of 250 mg/kg to the mice (Six or Seven-week-old male mice-dd strain).
After 6 hours, ANIT dissolved in olive oil, was aministered orally at 35 mg/kg.
Mice were sacrificed at 24 hours after ANIT administration and blood samples were collected. The blood samples were centrifuged and plasma was obtained.
Plasma GPT activity and alkaline phosphatase activity were determined by Reitman & Frankel's method and Bessey-Lowry's method, respectively.
The activity was expressed with Karmen Unit and Bessey-Lowry Unit, respectively.

The test system is the same in assay [3]. Description: Protective effect on liver damage induced by ANIT (Method 1). Format: in vivo, mice. The note with it: 2 x 250 mg/kg p.o., ANIT 35 mg/kg p.o., 24 h.
Text: as §1
It is well known that experimental cholestasis is accomplished by administration with ANIT in mice and rats, and studied as a cholestasis model in human being.
ANIT and CCl4 induce necrosis in the liver. ANIT causes it as small focci in perilobular parenchyna and CCl4 causes centrilobular parenchymal coagulation necrosis.
From these information, the elevation of plasma GPT activity in these models are thought to have defferent characteristics.
Test compounds, dissolved or suspended in olive oil or diethyleneglycol, were orally administered 2 times at intervals of 3 hrs to mice at the dose of 250 mg/kg. At 3 hrs after the second administration with test compounds, ANIT was administered orally at 35 mg/kg.
Mice were sacrificed at 24 hrs after ANIT administration and blood samples were collected. The blood samples were centrifuged and plasma was obtained.
Plasma GPT activity and alkaline phosphatase activity were determined by Reitman & Frankel's method and Bessey-Lowry's method, respectively. The activity was expressed with Karmen Unit and Bessey-Lowry Unit, respectively.

The mark [4] stands for this setting: Table 3-3, control 2.9, ANIT alone >9.6.
Where [5] appears, read: Table 3-3, control 17.5, ANIT alone >460.2.
The mark [6] stands for this setting: Table 3-4, control 3.7, ANIT alone 4.5.
[7] abbreviates: Table 3-4, control 11.3, ANIT alone 300.3.
[8] abbreviates: Table 3-1, control 3.3, ANIT alone 5.3.
The mark [9] stands for this setting: Table 3-1, control 7.4, ANIT alone 324.0.

The values that follow come from patent US4535075A, “Dithiolane derivative, process for producing the same and use thereof” (Nihon Nohyaku Co., Ltd., priority 1982, dated 1985).

Structures are written as SMILES.

On to `CC(=O)C(C(=O)OCc1ccccc1)=C1SC(O)C(O)S1` (stereo not shown) [Compound 48], for which the figures for the p-GPT in assay [1] and in assay [2] (setting [5]) were 18 Karmen units and 36.8 K.U, respectively. For the same compound, the “Liver Damage Index” value in assay [1] was 0.0. The compound also had an Alkaline phosphatase activity in assay [2] (setting [4]) of 4.1 B-L.V.

For `CCCCC(=O)C(C(=O)OCC)=C1SC(O)C(O)S1` (stereo not shown) [Compound 52], in assay [1], the p-GPT is on record as 25 Karmen units and the “Liver Damage Index” value was found to be 0.4. Besides, the Alkaline phosphatase activity in assay [2] (setting [6]) is 3.8 B-L.V. Further, the p-GPT in assay [2] (setting [7]) was 24.1 K.U.

For `CCCCCOC(=O)C(C(C)=O)=C1SC(O)C(O)S1` (stereo not shown) [Compound 42], in assay [1], the p-GPT is listed as 31 Karmen units and the “Liver Damage Index” value came out at 0.0. For the same compound, the Alkaline phosphatase activity in assay [2] (setting [4]) is 4.8 B-L.V. The same compound came in with a p-GPT in assay [2] (setting [5]) of 30.8 K.U.

Take `CC(=O)C(C(=O)OCCC(C)C)=C1SC(O)C(O)S1` (stereo not shown) [Compound 43]: in assay [1], the p-GPT stood at 36 Karmen units and the “Liver Damage Index” value was found to be 0.2. Besides, in assay [2] (setting [4]), the Alkaline phosphatase activity is listed as 5.9 B-L.V. Besides, the p-GPT in assay [2] (setting [5]) amounted to 298.9 K.U.

For the compound `CC(=O)C(C(=O)OC(C)(C)C)=C1SC(O)C(O)S1` (stereo not shown) [Compound 41], in assay [1], the p-GPT came to 105 Karmen units and the “Liver Damage Index” value came out at 0.6. Also, in assay [2] (setting [4]), the Alkaline phosphatase activity came to 6.0 B-L.V. In assay [2] (setting [5]), this compound displayed a p-GPT of 132.7 K.U.

Consider `COCCOC(=O)C(C(C)=O)=C1SC(O)C(O)S1` (stereo not shown) [Compound 47], for which, in assay [1], the p-GPT was 25 Karmen units and the “Liver Damage Index” value is reported as 0.2. Besides, the Alkaline phosphatase activity in assay [2] (setting [4]) came out at 4.2 B-L.V. In addition, the p-GPT in assay [2] (setting [5]) is reported as 40.1 K.U.

Turning to `CCCCOC(=O)C(C(C)=O)=C1SC(O)C(O)S1` (stereo not shown) [Compound 38], in assay [1], the p-GPT is 31 Karmen units and the “Liver Damage Index” value was 0.0. Further, in assay [2] (setting [4]), the Alkaline phosphatase activity was found to be 5.3 B-L.V. The p-GPT in assay [2] (setting [5]) amounted to 29.4 K.U.

Consider `CC(=O)C(C(=O)OC(C)C)=C1SC(O)C(O)S1` (stereo not shown) [Compound 37, isopropyl 4,5-dihydroxy-1,3-dithiolan-2-ylideneacetoacetate], for which, in assay [1], the p-GPT is 149 Karmen units and the “Liver Damage Index” value is on record as 0.4. This compound yielded an Alkaline phosphatase activity in assay [2] (setting [4]) of 4.4 B-L.V. The compound also had a p-GPT in assay [2] (setting [5]) of 177.4 K.U.

`CCCCOC(=O)C(C(=O)OCCCC)=C1SC(O)C(O)S1` (stereo not shown) [Compound 4]: in assay [1], the p-GPT stood at 18 Karmen units and the “Liver Damage Index” value is listed as 0.0. In assay [3] (setting [8]), this compound yielded an Alkaline phosphatase activity of 3.3 B-L.V. In assay [3] (setting [9]), the p-GPT is given as 26.8 K.U.

As to `COC(=O)C(C(C)=O)=C1SC(O)C(O)S1` (stereo not shown) [Compound 34], in assay [1], the p-GPT is 31 Karmen units and the “Liver Damage Index” value is listed as 0.0. The compound also showed an Alkaline phosphatase activity in assay [2] (setting [4]) of 4.2 B-L.V. Further, in assay [2] (setting [5]), the p-GPT is 32.7 K.U.

With `C#CCOC(=O)C(C(C)=O)=C1SC(O)C(O)S1` (stereo not shown) [Compound 46], in assay [1], the p-GPT is listed as 16 Karmen units and the “Liver Damage Index” value was found to be 0.0. In assay [2] (setting [4]), this compound had an Alkaline phosphatase activity of 5.3 B-L.V. Also, the p-GPT in assay [2] (setting [5]) was found to be 29.9 K.U.

Turning to `CCCOC(=O)C(C(C)=O)=C1SC(O)C(O)S1` (stereo not shown) [Compound 36], in assay [1], the p-GPT was found to be 30 Karmen units and the “Liver Damage Index” value came to 0.2. The compound further yielded an Alkaline phosphatase activity in assay [2] (setting [4]) of 3.9 B-L.V. The compound further showed a p-GPT in assay [2] (setting [5]) of 60.0 K.U.

On to `CC(=O)C(C(=O)OCC(C)C)=C1SC(O)C(O)S1` (stereo not shown) [Compound 39], for which, in assay [1], the p-GPT worked out at 19 Karmen units and the “Liver Damage Index” value was found to be 0.2. Moreover, the Alkaline phosphatase activity in assay [2] (setting [4]) is listed as 6.8 B-L.V. In assay [2] (setting [5]), this compound came in with a p-GPT of 70.7 K.U.

`CCCCOC(=O)C(C(=O)OC(C)C)=C1SC(O)C(O)S1` (stereo not shown) [Compound 21]: in assay [1], the p-GPT came out at 9 Karmen units and the “Liver Damage Index” value was found to be 0.0. The same compound yielded an Alkaline phosphatase activity in assay [3] (setting [8]) of 4.5 B-L.V. In assay [3] (setting [9]), the p-GPT is on record as 293.1 K.U.

Take `O=C(OCc1ccccc1)C(C(=O)OCc1ccccc1)=C1SC(O)C(O)S1` (stereo not shown) [Compound 11]: in assay [1], the p-GPT is 33 Karmen units and the “Liver Damage Index” value is 0.0. Moreover, the Alkaline phosphatase activity in assay [3] (Table 3-2, ANIT alone 5.3) is on record as 4.3 B-L.V. Further, in assay [3] (Table 3-2, ANIT alone >653.7), the p-GPT is 437.5 K.U.

Regarding `CC(C)(C)OC(=O)C(C(=O)OC(C)(C)C)=C1SC(O)C(O)S1` (stereo not shown) [Compound 7], in assay [1], the p-GPT worked out at 90 Karmen units and the “Liver Damage Index” value worked out at 0.0. The compound further came in with an Alkaline phosphatase activity in assay [3] (Table 3-2, ANIT alone 5.3) of 3.5 B-L.V. For the same compound, the p-GPT in assay [3] (Table 3-2, ANIT alone >653.7) came to 422.8 K.U.

On to `CCOC(=O)C(C(C)=O)=C1SC(O)C(O)S1` (stereo not shown) [Compound 35], for which, in assay [1], the p-GPT worked out at 92 Karmen units and the “Liver Damage Index” value is listed as 0.0. This compound yielded an Alkaline phosphatase activity in assay [2] (setting [4]) of 4.6 B-L.V. In addition, the p-GPT in assay [2] (setting [5]) was > 245.0 K.U.

Regarding `COCCOC(=O)C(C(=O)OCCOC)=C1SC(O)C(O)S1` (stereo not shown) [Compound 14], in assay [1], the p-GPT amounted to 56 Karmen units and the “Liver Damage Index” value is 0.2. Besides, the Alkaline phosphatase activity in assay [3] (Table 3-2, ANIT alone 5.3) came out at 3.1 B-L.V. Moreover, in assay [3] (Table 3-2, ANIT alone >653.7), the p-GPT is 11.5 K.U.

With `CCC(C)OC(=O)C(C(C)=O)=C1SC(O)C(O)S1` (stereo not shown) [Compound 40], in assay [1], the p-GPT worked out at 172 Karmen units and the “Liver Damage Index” value worked out at 0.4. The Alkaline phosphatase activity in assay [2] (setting [4]) turned out to be 5.2 B-L.V. For the same compound, in assay [2] (setting [5]), the p-GPT is 272.5 K.U.

On to `CC(=O)C(C(=O)OC1CCCCC1)=C1SC(O)C(O)S1` (stereo not shown) [Compound 44], for which, in assay [1], the p-GPT was determined as 73 Karmen units and the “Liver Damage Index” value is given as 0.4. Moreover, the Alkaline phosphatase activity in assay [2] (setting [4]) was determined as 5.1 B-L.V. For the same compound, the p-GPT in assay [2] (setting [5]) came out at 140.2 K.U.

For the compound `CCCOC(=O)C(C(=O)OCC)=C1SC(O)C(O)S1` (stereo not shown) [Compound 17], the p-GPT came to 40 Karmen units in assay [1] and 242.0 K.U in assay [3] (setting [9]). In addition, the “Liver Damage Index” value in assay [1] worked out at 0.6. Besides, the Alkaline phosphatase activity in assay [3] (setting [8]) is 4.8 B-L.V.

With `CCC(C)OC(=O)C(C(=O)OC(C)CC)=C1SC(O)C(O)S1` (stereo not shown) [Compound 6], in assay [1], the p-GPT came to 21 Karmen units and the “Liver Damage Index” value was 0.0. Moreover, the Alkaline phosphatase activity in assay [3] (setting [8]) is 4.9 B-L.V. The p-GPT in assay [3] (setting [9]) is listed as 142.0 K.U.

As for `CCCC(=O)C(C(=O)OCC)=C1SC(O)C(O)S1` (stereo not shown) [Compound 50], in assay [1], the p-GPT is reported as 75 Karmen units and the “Liver Damage Index” value came to 1.2. This compound also came in with an Alkaline phosphatase activity in assay [2] (setting [6]) of 3.0 B-L.V. Besides, the p-GPT in assay [2] (setting [7]) amounted to 18.5 K.U.

As to `C=CCOC(=O)C(C(C)=O)=C1SC(O)C(O)S1` (stereo not shown) [Compound 45], the p-GPT is 13 Karmen units in assay [1] and 136.9 K.U in assay [2] (setting [5]). Further, the “Liver Damage Index” value in assay [1] amounted to 0.0. In addition, the Alkaline phosphatase activity in assay [2] (setting [4]) is listed as 5.6 B-L.V.

Turning to `CCC(COC)OC(=O)C(C(=O)OC(CC)COC)=C1SC(O)C(O)S1` (stereo not shown) [Compound 16], in assay [1], the p-GPT came to 30 Karmen units and the “Liver Damage Index” value was determined as 0.2. Further, the Alkaline phosphatase activity in assay [3] (Table 3-2, ANIT alone 5.3) is reported as 5.0 B-L.V. In addition, the p-GPT in assay [3] (Table 3-2, ANIT alone >653.7) came out at 275.2 K.U.
